Data reported in patent US11561227B2, “Anti-mitochondrial inhibitors for oncogenic Ras and Myc” (LUNELLA BIOTECH, INC., priority 2017, dated 2023).

System: MCF7 cells
Assay: Mammosphere formation in MCF7 cells (rotenone-induced oxidative stress)
Assay type: cell-based, human
Description: Investigation of the mechanism of tumorigenesis may be conducted by transduction of MCF7 cells with c-Myc, H-Ras, or both, and then subjecting the cell lines to phenotypic characterization, such as mammosphere formation. For the mammosphere formation assay inventors employed, a single suspension of MCF7 cells was prepared using enzymatic (lx Trypsin-EDTA, Sigma Aldrich) and manual disaggregation with a 25-gauge needle. Cells were plated at a density of 500 cells/cm^2 in a mammosphere medium (DMEM-F12/B27/20-ng/mlEGF/PenStrep) in non-adherent conditions, in culture dishes coated with 2-hydroxyethylmethacrylate (poly-HEMA, Sigma). Cells were grown for 5 days and maintained in a humidified incubator at 37° C. at an atmospheric pressure in 5% (v/v) carbon dioxide/air. After 5 days in culture, spheres >50 μm were counted using an eye-piece graticule, and the percentage of cells plated which formed spheres was calculated and is referred to as percent mammosphere formation, normalized to vehicle-alone treated controls. Mammosphere assays were performed in triplicate and repeated three times independently.
The inventors hypothesized that c-Myc induces “stemness” of CSCs in part by driving and managing the onset of mitochondrial oxidative stress. To test this hypothesis, inventors used a pharmacological approach to stimulate oxidative stress. Rotenone is a naturally occurring isoflavone that behaves as an inhibitor of complex I and strongly induces mitochondrial oxidative stress. During rotenone treatment, mitochondrial complexes I and III are the major sites of electron leakage, resulting in increased superoxide production. The inventors treated MCF7 cells with increasing concentrations of Rotenone.
To further validate that the effects of low-dose Rotenone were due to oxidative stress, the inventors tested the effects of a mitochondrial-specific antioxidant Mito-tempo. Mito-tempo functions as a reactive oxygen species (ROS) scavenger by targeting superoxide anions generated in mitochondria.

Compound	effect on rotenone-stimulated mammosphere formation (MCF7 mammospheres pretreated with rotenone, FIG. 6)	effect on mammosphere formation (higher dose Rotenone, MCF7 cells, FIG. 5)	stimulation of mammosphere formation (low-dose Rotenone, MCF7 cells, FIG. 5)
CC1(C)CC(NC(=O)C[P+](c2ccccc2)(c2ccccc2)c2ccccc2)CC(C)(C)N1[O] [Mito-tempo]	inhibited the stimulatory effects of rotenone		
C=C(C)[C@H]1Cc2c(ccc3c2O[C@@H]2COc4cc(OC)c(OC)cc4[C@@H]2C3=O)O1 [Rotenone]		inhibited mammosphere formation	1.6 to 1.8 fold
